System: SSTR2 mutants
Assay: SSTRs Gi-mediated cAMP inhibition, GloSensor, HEK293, 5 μM forskolin, 15 min room temperature (SSTR2 mutants)
Format: cell-based, human
Procedure: The levels of the intracellular 3′, 5′-cyclic AMP (cAMP) were measured by the GloSensor cAMP assay (Promega) as described in the previous studies[28],[41] which has been widely used. The human full-length SSTRs and mutants were cloned into the pcDNA3.1+ vector with a HA signal sequence followed by a Flag tag at the N-terminus. HEK293 cells (ATCC, CRL-1573) were seeded into 6-well microplates at a density of 1.0 × 10^6 cells/well and cultured for 24 h at 37 °C with 5% CO2. Cells were then co-transfected with SSTR wild-type or mutants and GloSensor plasmids. After 24 h of transfection, the cells were dissociated with TrypLE™ Express Enzyme (1X) (Thermo Fisher Scientific) and collected by centrifugation at 500 × g for 5 min. Then the collected cells were suspended in Hank’s balanced salt solution [HBSS (Thermo Fisher Scientific)] supplemented with […] (YEASEN), and then the suspension cells were seeded into 96-well plates with 90 μl/well. After incubating at room temperature for 40 min, 5 μM forskolin and ligands diluted in HBSS were added to each well and the plates were incubated at room temperature for 15 min. […] were measured using the Synergy H1 microplate reader (BioTek) and the data presented are means of at least three independent experiments.

[1] = Suppl. Table 4, SSTR2 D295(7.36)F, n=3
[2] = Suppl. Table 4, SSTR2 F294(7.35)Y, n=3
[3] = Suppl. Table 4, SSTR2 I195(45.52)M, n=3
[4] = Suppl. Tables 4/5, SSTR2 V103(2.64)N, n=3

N#Cc1cccc(-c2ccc3ncc(-c4cc(F)cc(F)c4)c(N4CCC(N)CC4)c3c2)c1O [paltusotine]
Span (best-fit value) (P220A-2 (run 2)): 119.1
Top (best-fit value) (P220A-2 (run 2)): 123.6
Bottom (best-fit value) (P220A-3 (run 3)): 2.569
LogEC50 (best-fit value) (P220A-3 (run 3)): -8.511
Span (best-fit value) (P220A-3 (run 3)): 103.4
Top (best-fit value) (P220A-3 (run 3)): 106
Fold of WT (Suppl. Table 4, SSTR2 D295(7.36)F): 0.67
EC50 [1]: 1.39 ± 1.95 nM
Emax [1]: 75.57±7.43 %WT SSTR2
Fold of WT (Suppl. Table 4, SSTR2 F294(7.35)Y): 0.48
EC50 [2]: 0.99 ± 1.3 nM
Emax [2]: 103.10±3.86 %WT SSTR2
Fold of WT (Suppl. Table 4, SSTR2 I195(45.52)M): 1.47
EC50 [3]: 3.05 ± 1.57 nM
Emax [3]: 89.43±6.05 %WT SSTR2
Fold of WT (Suppl. Table 4, SSTR2 Y205(5.35)R): 0.16
EC50 (Suppl. Table 4, SSTR2 Y205(5.35)R, n=3): 0.34 nM
Fold of WT (Suppl. Tables 4/5, SSTR2 T194(45.51)H): 72.45
Emax (Suppl. Tables 4/5, SSTR2 T194(45.51)H, n=3): 103.80±12.72 %WT SSTR2
Fold of WT (Suppl. Tables 4/5, SSTR2 V103(2.64)N): 5.75
EC50 [4]: 12 ± 1.33 nM
Emax [4]: 99.52±4.73 %WT SSTR2
Receptor activation of mutant (T194(45.51)H in SSTR2): significantly reduced receptor activation
EC50 (T194A, run 1, best-fit): 54.2 nM
LogEC50 (T194A, run 1, best-fit): -7.266
EC50 (T194A, run 2, best-fit): 52.7 nM
LogEC50 (T194A, run 2, best-fit): -7.278
EC50 (T194A, run 3, best-fit): 125 nM
LogEC50 (T194A, run 3, best-fit): -6.904
Bottom (best-fit) (T194H, run 1): 6.584
EC50 (T194H, run 1): 123 nM
LogEC50 (T194H, run 1): -6.909
Span (best-fit) (T194H, run 1): 95.8
Top (best-fit) (T194H, run 1): 102.4
Bottom (best-fit) (T194H, run 2): -1.67
EC50 (T194H, run 2): 151 nM
LogEC50 (T194H, run 2): -6.822
Span (best-fit) (T194H, run 2): 105.4
Top (best-fit) (T194H, run 2): 103.8
Bottom (best-fit) (T194H, run 3): -5.336
EC50 (T194H, run 3): 125 nM
LogEC50 (T194H, run 3): -6.902
Span (best-fit) (T194H, run 3): 128.8
Top (best-fit) (T194H, run 3): 123.4
Impact on Gi signaling (V103(2.64)A): less impact on Gi signaling
Receptor activation of mutant (V103(2.64)N in SSTR2): reduced receptor activation induced by paltusotine
Bottom (best-fit) (V103N, run 1): 8.462
EC50 (V103N, run 1): 11.7 nM
LogEC50 (V103N, run 1): -7.932
Span (best-fit) (V103N, run 1): 90.96
Top (best-fit) (V103N, run 1): 99.42
Bottom (best-fit) (V103N, run 2): -2.517
EC50 (V103N, run 2): 36.2 nM
LogEC50 (V103N, run 2): -7.441
Span (best-fit) (V103N, run 2): 109.6
Top (best-fit) (V103N, run 2): 107.1
Bottom (best-fit) (V103N, run 3): -1.625
EC50 (V103N, run 3): 11.7 nM
LogEC50 (V103N, run 3): -7.93
Span (best-fit) (V103N, run 3): 109.5
Top (best-fit) (V103N, run 3): 107.8
Bottom (best-fit value) (W269A-1 (run 1)): -6.112
LogEC50 (best-fit value) (W269A-1 (run 1)): -9.221
Span (best-fit value) (W269A-1 (run 1)): 105.6
Top (best-fit value) (W269A-1 (run 1)): 99.48
Bottom (best-fit value) (W269A-2 (run 2)): -8.179
LogEC50 (best-fit value) (W269A-2 (run 2)): -9.298
Span (best-fit value) (W269A-2 (run 2)): 111.2
Top (best-fit value) (W269A-2 (run 2)): 103
Bottom (best-fit value) (W269A-3 (run 3)): -4.689
LogEC50 (best-fit value) (W269A-3 (run 3)): -9.219
Span (best-fit value) (W269A-3 (run 3)): 124.8
Top (best-fit value) (W269A-3 (run 3)): 120.1
EC50 (Y50A, run 1, best-fit): 3.61 nM
LogEC50 (Y50A, run 1, best-fit): -8.443
EC50 (Y50A, run 2, best-fit): 3.74 nM
LogEC50 (Y50A, run 2, best-fit): -8.427
EC50 (Y50A, run 3, best-fit): 3.4 nM
LogEC50 (Y50A, run 3, best-fit): -8.469
Bottom (best-fit value) (Y205A-1 (run 1)): 11.16
LogEC50 (best-fit value) (Y205A-1 (run 1)): -9.464
Span (best-fit value) (Y205A-1 (run 1)): 82.7
Top (best-fit value) (Y205A-1 (run 1)): 93.87
Bottom (best-fit value) (Y205A-2 (run 2)): -6.723
LogEC50 (best-fit value) (Y205A-2 (run 2)): -9.038
Span (best-fit value) (Y205A-2 (run 2)): 105.5
Top (best-fit value) (Y205A-2 (run 2)): 98.77
Bottom (best-fit value) (Y205A-3 (run 3)): 0.8743
LogEC50 (best-fit value) (Y205A-3 (run 3)): -9.745
Span (best-fit value) (Y205A-3 (run 3)): 102.6
Top (best-fit value) (Y205A-3 (run 3)): 103.5
LogEC50 (Y205R, run 1): -9.464
Span (best-fit) (Y205R, run 1): 104.7
Top (best-fit) (Y205R, run 1): 106.2
LogEC50 (Y205R, run 2): -9.626
Span (best-fit) (Y205R, run 2): 101.5
Top (best-fit) (Y205R, run 2): 105.3
LogEC50 (Y205R, run 3): -8.061
Span (best-fit) (Y205R, run 3): 97.31
Top (best-fit) (Y205R, run 3): 99.13
Bottom (best-fit value), cAMP inhibition (Y302A-1 (run 1)): 5.692

— paper PMC9944328 (Nature Communications, 2023)
